Structures can show the parent of a compound that is named as a salt.
These compounds were tested on urine-derived renal epithelial cells (assay: AP staining, efficiency of AP positive clones (iPSCs induction)). Conditions: Example 5; day 0 to day 8 of induction culture; FIG. 11-12.
Format: cell-based, human
Description: 1. The procedure for AP staining is as follows,
a) Aspirate and remove the growth medium from the cultures to be stained when the cell culture is finished, wash the culture with 1×PBS one time; Fix the cells with 4% paraformaldehyde at room temperature for 2 min;
b) Aspirate the fixing solution, wash the culture with 1×TBST for 3 times; Balance with AP buffer at room temperature for 5 min;
c) Chromogenic reaction was performed with AP chromogenic reagent at room temperature in dark for 15 min (5-15 min, terminated when the color of clones became darker and without background, increase the reaction time appropriately if the clones were not stained). The chromogenic reagent was aspirated, cells were washed with 1×PBS for two times, covered with an appropriate amount of 1×PBS, observed and counted under a microscope.
Alkaline phosphatase (AP) is a phosphomonoesterase. The alkaline phosphatase in the cytoplasm can hydrolyze sodium naphthol phosphate to produce α-naphthol in alkaline environments. The latter reacts with a stable azo salt and presents a deep purple color, which the presence of alkaline phosphatase and the abundance of expression could be determined accordingly. Alkaline phosphatase is highly expressed in undifferentiated pluripotent stem cells, and the activity of alkaline phosphatase in the differentiated pluripotent stem cells is decreased. Therefore, whether the cells are clones of iPSCs could be determined by alkaline phosphatase staining (AP staining). And, thus the efficiency of iPSCs production can be easily judged according to the efficiency of AP positive clones.
a) Electroporation transformation: The recombinant plasmids obtained in step 1) were added into the culture of renal epithelial cells after digestion with trypsin, and then transferred into the renal epithelial cells. After electroporation, the cells were seeded on a cell culture plate coated with extracellular matrix;
b) Induction culture: 1-3 days after Step 1), or when the cells reached a confluence of 30% or more, the culture medium of pluripotent stem cell was used to continue induction culture. About 15-30 days after the mature of iPSCs clones, the positive clones of iPSCs were identified by AP staining, and the efficiency of AP positive clones was calculated accordingly;

In order of falling “preferable concentration for promoting cell reprogramming (AP staining)” value:
1. Cc1c[nH]c(-c2cnc(NCCNc3ccc(C#N)cn3)nc2-c2ccc(Cl)cc2Cl)n1 [CHIR-99021]  3 µM
2. N[C@@H]1C[C@H]1c1ccccc1 [tranylcypromine hydrochloride, Tranylcypromine hydrochloride]  2 µM
3. O=C(NOC[C@H](O)CO)c1ccc(F)c(F)c1Nc1ccc(I)cc1F [PD0325901]  0.5 µM
4. CCCC(=O)[O-].[Na+] [sodium butyrate, Sodium Butyrate]  0.25 µM

Reference: patent publication US20180371422A1, “NON-VIRAL IPSCS INDUCING METHOD, COMPOSITIONS, KITS AND IPSCS” (Guangzhou Biocare Biotechnology Co., Ltd, priority 2016, published 2018)
